# Measured values: article PMC8878317, “Chemogenomics identifies acetyl-coenzyme A synthetase as a target for malaria treatment and prevention” (Cell Chemical Biology, 2022)
# Test system: P. falciparum 3D7 parasites
# Assay: Metabolomic profiling of compound-treated parasites (LC/MS);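 on Metabolite data: 3-Phosphoglycerate: Log2 fold change in abundance versus untreated parasite controls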;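 on Metabolite data: Myo-Inositol: Log2 fold change in abundance versus untreated parasite controls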;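 on Metabolite data: N-Carbamoyl-L-Aspartate: Log2 fold change in abundance versus untreated parasite controls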;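 on Metabolite data: Nicotinate: Log2 fold change in abundance versus untreated parasite controls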
# Assay type: cell-based
# Parameters: Metabolite data: dTMP / Metabolite data: GMP / Metabolite data: S-Adenosyl-L-Homocysteine / Metabolite data: 1_3-Bisphosphoglyceric acid: scale not given here
# Experimental: The metabolite extraction protocol was performed as described elsewhere ([Allman et al., 2016]). Briefly, 1 mL of trophozoites that were magnetically purified to a concentration of 1×10^8 parasites/mL were placed into wells with 4 mL of RPMI 1640 media and allowed to recover for one hour. […] The culture was incubated for another 2.5 hr. The culture was centrifuged and quenched with 90% methanol containing 0.25 μM ^13C,^15N-Labeled-Aspartate, vortexed, and centrifuged. The supernatant was transferred to a new tube and dried for storage. Prior to analysis, the samples were resuspended to a final concentration of 1×10^8 parasites/mL in a solution of 3% methanol:water containing 1 μM chlorpropamide as an internal standard.
# The chromatographic conditions used in this experiment were performed with slight modifications from previous methods ([Zhang et al., 2018]). Briefly, a Waters XSelect HSS C18 column was used on a gradient reverse-phase chromatographic configuration with 97:3 water:methanol with 10 mM tributylamine and 15 mM acetic acid (solvent A) and methanol (solvent B). A Thermo-Scientific Exactive Plus Orbitrap mass spectrometer was operated in negative mode for the detection of the metabolites. Peak picking and integration were performed using El-Maven LC/MS data processing software. The peak data were then exported to Excel where metabolite areas were normalized to the internal standards, blank subtracted, and averaged by condition.
smiles,measurement,value
Cc1cc(Nc2ccc3ccccc3c2)n2ncnc2n1 [DSM1],Metabolite data: 1_3-Bisphosphoglyceric acid,0
same,Metabolite data: 2_3-Diphosphoglyceric acid,-0.2991
same,Metabolite data: 3-Phosphoglycerate,-0.4141
same,Metabolite data: 4-Aminobutyrate,0.009246
same,Metabolite data: 4-Phosphopantothenate,-0.5403
same,Metabolite data: 4-phosphopantetheine,0
same,Metabolite data: 5-aminopentanoic acid,0
same,Metabolite data: 5-phosphoribosyl-1-pyrophosphate,0
same,Metabolite data: 6-Phospho-D-Gluconate,-0.253
same,Metabolite data: ADP-D-Glucose,-0.1243
same,Metabolite data: Acetyl-CoA,-0.3243
same,Metabolite data: Acetyllysine,-0.16
same,Metabolite data: Aconitate,-0.837
same,Metabolite data: CDP,-0.7937
same,Metabolite data: CDP-Ethanolamine,-0.6098
same,Metabolite data: CDP-choline,0
same,Metabolite data: CMP,-1.862
same,Metabolite data: CTP,-3.137
same,Metabolite data: Citrate/Isocitrate,-0.6885
same,Metabolite data: Cyclic-AMP,-0.9051
same,Metabolite data: Dihydroorotate,2.672
same,Metabolite data: FAD,-0.1625
same,Metabolite data: FMN,-0.9996
same,"Metabolite data: Fructose-1,6-Bisphosphate",-0.4129
same,Metabolite data: Fumarate,-1.402
same,Metabolite data: GDP,0.4797
same,Metabolite data: GMP,0.1634
same,Metabolite data: GTP,-1.061
same,Metabolite data: Glucose-1/6-Phosphate,-0.4979
same,Metabolite data: Glutathione Disulfide,-0.412
same,Metabolite data: Hexose,0
same,Metabolite data: Hydroxyisocaproic acid,0
same,Metabolite data: Indole,-0.8571
same,Metabolite data: Ketoleucine,0
same,Metabolite data: L-arginino-succinate,0
same,Metabolite data: Lactate,-0.809
same,Metabolite data: Malate,-1.549
same,Metabolite data: Myo-Inositol,-1.331
same,Metabolite data: N-Acetyl-Glutamate,-0.2257
same,Metabolite data: N-Acetyl-L-Alanine,-0.1646
same,Metabolite data: N-Acetyl-L-Ornithine,-0.5891
same,Metabolite data: N-Carbamoyl-L-Aspartate,2.4139
same,Metabolite data: NAD+,-0.1986
same,Metabolite data: NADH,0.07835
same,Metabolite data: NADP+,-0.1908
same,Metabolite data: NADPH,-0.3915
same,Metabolite data: Nicotinate,-0.7359
same,Metabolite data: Octulose 8/1-Phosphate,-0.4585
same,Metabolite data: Orotate,-2.835
same,Metabolite data: PD,-0.209
same,Metabolite data: PE,-0.4415
same,Metabolite data: PEEK,-0.4847
same,Metabolite data: Phenol Red,0
same,Metabolite data: Pyroglutamic acid,-0.2671
same,Metabolite data: S-Adenosyl-L-Homocysteine,-0.1944
same,Metabolite data: S-methyl-5'-thioadenosine,-0.4315
same,Metabolite data: SD,-0.8655
same,Metabolite data: Sedoheptulose Bisphosphate,-0.2224
same,Metabolite data: UDP,-2.0359
same,Metabolite data: UDP-D-Glucose,-0.2988
same,Metabolite data: UDP-D-Glucuronate,-0.2168
same,Metabolite data: UDP-N-Acetyl-Glucosamine,-0.4693
same,Metabolite data: UMP,-2.06
same,Metabolite data: UTP,-4.388
same,Metabolite data: a-ketoglutarate,-0.7348
same,Metabolite data: acetyl-aspartate,0
same,Metabolite data: arginine,0
same,Metabolite data: asparagine,0
same,Metabolite data: aspartate,0
same,Metabolite data: biotin,0
same,Metabolite data: chlorpropamide,0
same,Metabolite data: coenzyme A,0
same,Metabolite data: dAMP,1.7179
same,Metabolite data: dATP,-0.3141
same,Metabolite data: dCDP,-0.1509
same,Metabolite data: dCMP,-1.099
same,Metabolite data: dCTP,-2.549
same,Metabolite data: dGDP/ADP,0.1331
same,Metabolite data: dGMP/AMP,0.02924
same,Metabolite data: dGTP/ATP,0
same,Metabolite data: dTDP,-1.607
same,Metabolite data: dTMP,-2.786
same,Metabolite data: dTTP,-3.44
same,Metabolite data: folate,0
same,Metabolite data: glucono-lactone,0
same,Metabolite data: glutamate,0
same,Metabolite data: glutamine,0
same,Metabolite data: glutathione,0
same,Metabolite data: histidine,0
same,Metabolite data: hydroxyproline/Aminolevulinate,0
same,Metabolite data: isoleucine,0
same,Metabolite data: leucine,0
same,Metabolite data: maleic acid,0
same,Metabolite data: methionine,0
same,Metabolite data: nicotinamide mononucleotide,0
same,Metabolite data: orotidine-5'-phosphate,0
